# Source: US20260174854A1, “Systems And Methods For Imaging Diverse Pathogenic Bacteria In Vivo With [18F]Fluoromannitol Positron Emission Tomography” (priority 2022, published 2026)
# “Also recorded” adds a separate entry of the source.
# How the values were obtained:
# live strain of bacteria = test: murine myositis model, infection vs sterile inflammation, PET SUV / Patlak / CFU correlation (strain not stated at the result); format: in vivo, mice
# Text: (§1) Referring now to FIGS. 2A-2D, a murine myositis model of musculoskeletal infection was used to determine whether [^18F]FMtl could differentiate sterile inflammation from infection in vivo by inoculating the right triceps brachii with a live strain of bacteria and the left triceps brachii with 10× heat-killed bacteria to generate an inflammatory response.
# To quantify PET signal, volumes of interest (VOIs) were generated in the upper limbs of mice using CT for anatomical localization. […] Biodistribution studies were performed in successive cohorts of mice over 3 hours to determine dosimetry of [^18F]FMtl. […] Static PET SUV were correlated with bacterial colony-forming units (CFU) from excised tissue to determine sensitivity of [^18F]FMtl (see FIG. 2C), indicating [^18F]FMtl can reliably detect as little as 5 log10 (CFU/mL) of bacteria in vivo by SUV. It was also investigated whether parametric mapping could increase bacterial sensitivity of [^18F]FMtl in vivo, as Patlak slope (K,) is a quantitative measure of rate of uptake in tissue, rather than SUV, which is semi-quantitative and cannot delineate signal from blood pool contamination and tissue. Parametric imaging improved the bacterial sensitivity of [^18F]FMtl by roughly 20-fold (log10 CFU=1.3; 1.7×10^6 improved to […]) (see FIG. 2D).
# S. aureus [1] = test: competitive uptake assay of [^18F]FMtl in the presence of unlabeled D-mannitol; format: cell-based; settings: co-incubation in S. aureus cultures, FIG. 1C
# Protocol: FIG. 1C is a graph showing a competitive uptake assay of [^18F]FMtl in the presence of unlabeled D-mannitol in S. aureus;
# (§2) Accumulation of [^18F]FMtl was also evaluated in a broad panel of bacterial strains.
# S. aureus [2] = test: in vitro accumulation of radiotracer in S. aureus cultures (gamma counts); format: cell-based; settings: for accumulation in S. aureus cultures, tracer comparison: FIG. 1D, FMtl vs FDS P<0.001
# Protocol: as §2
# E. coli [3] = test: mixed infection (polymicrobial) myositis model, PET/CT, E. coli-infected right triceps brachii; format: in vivo, mice; settings: for postmortem gamma counting of tissues: E. coli-infected muscle; for E. coli SUV, [^18F]FMtl versus [^18F]FDS: P=0.11
# Text: (§3) Referring now to FIGS. 3A-3B, the sensitivity of [^18F]FMtl compared to [^18F]FDS was also investigated in a mixed infection (polymicrobial) model. [^18F]FDS has shown remarkable specificity for Enterobacteriaceae in vivo, but has limited to no sensitivity toward gram-positive and other gram-negative organisms. Mice were inoculated with live E. coli (8.4×10^6 CFU) and S. aureus (8.8×10^6 CFU) in the right and left triceps brachii, respectively.
# S. aureus [4] = test: mixed infection (polymicrobial) myositis model, PET/CT, S. aureus-infected left triceps brachii; format: in vivo, mice; settings: for postmortem gamma counting of tissues: S. aureus-infected muscle
# Text: as §3
# [5] = test system: broad panel of bacterial strains; test: uptake in a broad panel of bacterial strains (pathogens of clinical interest); format: cell-based; settings: 60 minutes of incubation, FIG. 1B
# Protocol: FIG. 1B is a graph showing uptake of [^18F]FMtl in pathogens of clinical interest, determined at 60 minutes of incubation;
# as §2
# S. aureus [6] = test: murine myositis model, live vs 10× heat-killed bacteria, PET imaging (S. aureus); format: in vivo, mice; settings: gram-positive strain; infected vs inflamed triceps brachii, FIG. 2A
# Text: as §1
# E. coli [7] = test: in vitro accumulation of radiotracer in E. coli cultures (gamma counts); format: cell-based
# Protocol: as §2
# S. aureus [8] = test: serial [^18F]FMtl PET during vancomycin treatment of S. aureus myositis; format: in vivo, mice; settings: FIG. 7A
# Protocol: A growing incidence of antimicrobial resistance in many bacterial pathogens is a serious concern, as treatment failure is a major threat to global health. Inappropriate antibiotic use is also the primary driver of antibiotic resistance, which places undue risk onto patients for adverse events such as allergic reactions and C. difficile infection. […] Mice were inoculated with S. areus in the right triceps brachii and imaged 8 hours post-infection with [^18F]FMtl, prior to initiation of vancomycin treatment (100 mg/kg every 8 hours, IP) and subsequently imaged at 24 and 72 hours post-treatment. […] The accumulation of [^18F]FMtl was further investigated in a panel of bacterial isolates from infected combat wounds of military service members (see FIG. 7B).
# A. baumannii = test: laceration wound model infected with A. baumannii, [^18F]FMtl PET; format: in vivo; settings: A. baumannii and several other ESKAPE pathogens
# Text: In an exemplary embodiment, [^18F]FMtl was able to differentiate sterile inflammation and bacterial infection resulting from S. aureus and E. coli in vivo in a murine myositis model using PET imaging. Exemplary embodiments of the present disclosure were extended to a laceration wound model infected with A. baumannii, an important pathogen in the nosocomial and battlefield setting. […] [^18F]FMtl PET was also able to monitor therapeutic efficacy of vancomycin against S. aureus in vivo. The ease of production of [^18F]FMtl facilitates wide dissemination from any radiopharmacy.
# E. coli [9] = test: murine myositis model, live vs 10× heat-killed bacteria, PET imaging (E. coli); format: in vivo, mice; settings: gram-negative strain; infected vs inflamed triceps brachii, FIG. 2A
# Text: as §1
compound,measurement,setting,value
"2-[^18F]fluoro-2-deoxy-glucose [[^18F]FDG, reference compound]",differences in SUV between sites of infection and inflammation,live strain of bacteria; FIG. 2B,unable to demonstrate significant differences in SUV
same,ability to distinguish infection from inflammation (PET),live strain of bacteria; infected vs inflamed triceps brachii,unable to distinguish infection from inflammation
OC[C@@H](O)[C@@H](O)[C@H](O)[C@H](O)CO [D-mannitol],concentration of D-mannitol that blocked [^18F]FMtl accumulation in bacteria,S. aureus [1],≥ 10 µg/mL
"OC[C@@H](O)[C@@H](O)[C@H](O)[C@@H]([18F])CO [[^18F]FDS, 2-[^18F]fluoro-2-deoxy-sorbitol]","accumulation in S. aureus cultures, tracer comparison",S. aureus [2],not significantly different to negative control
same,postmortem gamma counting of tissues,E. coli [3],only accumulated in E. coli-infected muscle
same,"specificity, E. coli compared to S. aureus infection",E. coli [3]; P=0.007,high specificity for E. coli compared to S. aureus
same,"E. coli SUV, [^18F]FMtl versus [^18F]FDS",E. coli [3],no significant differences
same,postmortem gamma counting of tissues,S. aureus [4],only accumulated in E. coli-infected muscle
"OC[C@@H](O)[C@@H](O)[C@H](O)[C@H]([18F])CO [[^18F]FMtl, [^18F]fluoromannitol]",bacterial sensitivity with parametric imaging,live strain of bacteria; Patlak parametric mapping,7.0×10^5 CFU
same,bacterial sensitivity before parametric imaging,live strain of bacteria; SUV,1.7×10^6 CFU
same,time post-injection to significant differences in PET signal (infection detected and differentiated),"live strain of bacteria; dynamic imaging, intravenous injection",5 min
same,gamma counting of excised triceps brachii after scans,"live strain of bacteria; ex vivo, infected vs inflamed tissue",increased PET signal in the infected tissue compared to inflamed
same,bacteria reliably detected in vivo using the clinical standard SUV,"live strain of bacteria; mouse, in vivo",10^5 CFU
same,sensitivity between E. coli and S. aureus,"live strain of bacteria; mouse, in vivo",did not diminish
same,bacteria reliably detected in vivo by SUV (sensitivity),"live strain of bacteria; static PET SUV correlated with CFU from excised tissue, FIG. 2C",5 log10 (CFU/mL)
same,increase of standardized uptake value (SUV) at infection compared to contralateral site of inflammation,"live strain of bacteria; summed frames 45-60 minutes post-injection, FIG. 2B",3.5 fold
same,strains excepted from rapid and significant accumulation,[5],P. aeruginosa and E. faecium
same,accumulation in bacterial strains,[5]; all strains tested except P. aeruginosa and E. faecium,rapid and significant accumulation
same,accumulation at site of infection (PET),S. aureus [6],specifically accumulated in the site of infection
same,"accumulation in E. coli cultures, tracer comparison",E. coli [7]; FIG. 1D,accumulated
same,incorporation of tracer over time,E. coli [7]; heat-killed bacteria,not heat-killed bacteria
same,incorporation of tracer over time,E. coli [7]; live E. coli cultures,readily incorporated
same,relation of PET signal to CFU burden during treatment,S. aureus [8]; vancomycin treatment,correlating closely with CFU burden
same,"accumulation in S. aureus cultures, tracer comparison",S. aureus [2],significantly higher
same,accumulation in S. aureus versus E. coli cultures,S. aureus [2]; P=0.64,not significantly different
same,incorporation of tracer over time,S. aureus [2]; heat-killed bacteria,not heat-killed bacteria
same,incorporation of tracer over time,"S. aureus [2]; live S. aureus cultures, FIG. 1A",readily incorporated
same,detection of infection by PET,A. baumannii,rapidly and specifically detected
same,accumulation at site of infection (PET),E. coli [9],specifically accumulated in the site of infection
same,postmortem gamma counting of tissues,E. coli [3],uptake in both S. aureus and E. coli
same,"E. coli SUV, [^18F]FMtl versus [^18F]FDS",E. coli [3],no significant differences
same,"SUV / accumulation, E. coli versus S. aureus infection in the same animal","S. aureus [4]; E. coli 8.4×10^6 CFU right, S. aureus 8.8×10^6 CFU left, P=0.19",No significant differences in SUV; also recorded: indistinguishable accumulation
same,"accumulation in S. aureus infection, compared to [^18F]FDS",S. aureus [4]; P<0.001,significantly higher
same,postmortem gamma counting of tissues,S. aureus [4],uptake in both S. aureus and E. coli
"CN[C@H](CC(C)C)C(=O)N[C@H]1C(=O)N[C@@H](CC(N)=O)C(=O)N[C@H]2C(=O)N[C@H]3C(=O)N[C@H](C(=O)N[C@H](C(=O)O)c4cc(O)cc(O)c4-c4cc3ccc4O)[C@H](O)c3ccc(c(Cl)c3)Oc3cc2cc(c3O[C@@H]2O[C@H](CO)[C@@H](O)[C@H](O)[C@H]2O[C@H]2C[C@](C)(N)[C@H](O)[C@H](C)O2)Oc2ccc(cc2Cl)[C@H]1O [vancomycin, reference compound]",[^18F]FMtl PET signal during treatment,"S. aureus [8]; vancomycin 100 mg/kg every 8 hours, IP, imaged 8 hours post-infection, 24 and 72 hours post-treatment",diminished over the course of treatment
